# Results published in patent US11104664B2, “4,5,6-trisubstituted indazole derivatives, and preparation method and pharmaceutical use thereof” (SHANGHAI HAIYAN PHARMACEUTICAL TECHNOLOGY CO., LTD., priority 2016, dated 2021).
# Assays:
# [1] = target: Recombinant PRC2 (EZH2-Y641F) (Homo sapiens (Human), UniProt Q15910, Y641F); assay: In vitro methyltransferase activity assay (LANCE Ultra); type: biochemical; conditions: for IC50: 2.5 μM SAM/250 nM H3(1-50)K27me1, 3 hours, room temperature
# Method: Recombinant PRC2 (EZH2-Y641F) was purchased from Active motif, S-adenosyl-methionine (SAM) and Poly-L-lysine (PLL) were purchased from Sigma-Aldrich, and H3(1-50)K27me1 peptide was purchased from Cisbio. LANCEUltrasystem (Perkinelmer) was used for detection system. In the enzyme activity test, compounds to be tested were diluted by 8 gradient points in a ratio of 1:3, and added into each well in a reaction plate, and 100 ng recombinase was added, followed by a buffer [20 mM Tris pH8.5, 2 mM MgCl2, 0.01% Tween-20, 1 mM TCEP] containing 2.5 μM SAM/250 nM H3 (1-50)K27me1 premixtures. Enzymatic reaction thus began at room temperature. After reacted for 3 hours, a detection solution premixed with PLL, detection antibody and Ulight was added, and reacted for 1 hour at room temperature. The fluorescence value was then read on a Tecan infinite pro. IC50 was calculated by fitting in a four-factor model in the XLfit software.
# Pfeiffer cells = assay: Cell proliferation assay (Cell counting kit-8, 6 days); type: cell-based; conditions: Pfeiffer (CRL-2632), 6 days culture
# Method: The used cell lines Pfeiffer (CRL-2632), suDHL-6 (CRL-2959) and suDHL-10 (CRL-2963) were obtained from American Type Culture Collection (ATCC). All cell lines were cultured in RPMI-1640 medium (Gibco) containing 10% fetal bovine serum (Gibco). The cultured cells were harvested by centrifugation and the cell density was determined using a CounterStar cell counter. Appropriate number of cells were plated in a 96-well culture plate and incubated overnight. Compounds to be tested were diluted by 8 gradient points in a ratio of 1:3 and added into corresponding wells. After continuing to culture for 6 days, the number of viable cells was measured with Cell counting kit-8, and the absorbance value was read on Tecan infinite pro. The IC50 was calculated by fitting in a four-parameter model in the XLfit software.
# Recombinant PRC2 (EZH2-Y641F), sequence (Q15910 whole entry Y641F): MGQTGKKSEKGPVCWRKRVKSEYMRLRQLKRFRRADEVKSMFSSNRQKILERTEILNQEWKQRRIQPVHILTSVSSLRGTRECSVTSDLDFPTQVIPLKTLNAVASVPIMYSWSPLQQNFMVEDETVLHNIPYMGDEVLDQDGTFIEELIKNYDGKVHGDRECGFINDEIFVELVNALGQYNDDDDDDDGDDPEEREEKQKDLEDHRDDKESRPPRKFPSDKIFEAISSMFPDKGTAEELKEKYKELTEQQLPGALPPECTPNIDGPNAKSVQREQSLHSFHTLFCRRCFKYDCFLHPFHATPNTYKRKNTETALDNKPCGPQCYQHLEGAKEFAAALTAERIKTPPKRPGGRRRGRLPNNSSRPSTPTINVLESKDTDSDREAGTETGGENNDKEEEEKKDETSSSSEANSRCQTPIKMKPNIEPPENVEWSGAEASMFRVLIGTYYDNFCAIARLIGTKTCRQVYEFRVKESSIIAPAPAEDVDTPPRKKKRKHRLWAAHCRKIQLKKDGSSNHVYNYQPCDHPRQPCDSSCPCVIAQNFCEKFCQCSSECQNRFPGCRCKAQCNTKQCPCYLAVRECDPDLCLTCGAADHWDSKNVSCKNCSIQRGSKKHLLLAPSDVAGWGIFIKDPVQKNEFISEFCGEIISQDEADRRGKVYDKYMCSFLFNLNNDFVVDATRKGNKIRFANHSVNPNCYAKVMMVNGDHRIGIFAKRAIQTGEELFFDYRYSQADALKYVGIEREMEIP
# Recombinant PRC2 (EZH2-Y641F), sequence (O75530 whole entry partner): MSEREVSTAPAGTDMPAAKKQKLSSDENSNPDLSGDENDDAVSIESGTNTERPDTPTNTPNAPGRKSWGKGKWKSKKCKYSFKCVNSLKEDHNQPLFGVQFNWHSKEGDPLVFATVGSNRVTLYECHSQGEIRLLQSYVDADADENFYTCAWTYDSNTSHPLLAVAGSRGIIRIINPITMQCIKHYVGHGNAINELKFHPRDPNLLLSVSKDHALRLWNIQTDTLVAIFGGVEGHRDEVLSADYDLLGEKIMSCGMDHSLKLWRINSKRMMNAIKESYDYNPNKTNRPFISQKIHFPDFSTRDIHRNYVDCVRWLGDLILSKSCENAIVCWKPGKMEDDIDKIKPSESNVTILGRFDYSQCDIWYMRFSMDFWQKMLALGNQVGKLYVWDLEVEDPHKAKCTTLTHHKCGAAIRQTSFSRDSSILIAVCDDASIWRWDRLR
# Recombinant PRC2 (EZH2-Y641F), sequence (Q15022 whole entry partner): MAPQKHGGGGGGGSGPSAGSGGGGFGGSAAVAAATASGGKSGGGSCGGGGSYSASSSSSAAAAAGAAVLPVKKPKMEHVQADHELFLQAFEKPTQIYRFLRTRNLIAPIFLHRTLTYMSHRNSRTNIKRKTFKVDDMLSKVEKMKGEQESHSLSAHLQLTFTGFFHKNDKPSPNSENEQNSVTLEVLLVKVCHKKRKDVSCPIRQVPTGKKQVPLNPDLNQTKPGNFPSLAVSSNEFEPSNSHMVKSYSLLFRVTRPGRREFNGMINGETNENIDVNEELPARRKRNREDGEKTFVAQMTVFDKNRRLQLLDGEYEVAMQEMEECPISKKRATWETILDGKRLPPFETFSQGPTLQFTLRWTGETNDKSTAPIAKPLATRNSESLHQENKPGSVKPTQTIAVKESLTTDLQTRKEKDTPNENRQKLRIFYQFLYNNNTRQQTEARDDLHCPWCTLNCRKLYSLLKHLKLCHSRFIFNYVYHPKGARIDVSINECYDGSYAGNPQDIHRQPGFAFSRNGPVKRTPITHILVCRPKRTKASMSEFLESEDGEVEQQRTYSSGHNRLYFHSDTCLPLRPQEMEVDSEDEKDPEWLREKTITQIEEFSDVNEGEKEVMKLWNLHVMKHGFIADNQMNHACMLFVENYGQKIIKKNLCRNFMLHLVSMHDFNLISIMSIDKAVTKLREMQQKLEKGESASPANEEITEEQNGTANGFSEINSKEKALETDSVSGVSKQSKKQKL
# Recombinant PRC2 (EZH2-Y641F), sequence (Q09028 whole entry partner): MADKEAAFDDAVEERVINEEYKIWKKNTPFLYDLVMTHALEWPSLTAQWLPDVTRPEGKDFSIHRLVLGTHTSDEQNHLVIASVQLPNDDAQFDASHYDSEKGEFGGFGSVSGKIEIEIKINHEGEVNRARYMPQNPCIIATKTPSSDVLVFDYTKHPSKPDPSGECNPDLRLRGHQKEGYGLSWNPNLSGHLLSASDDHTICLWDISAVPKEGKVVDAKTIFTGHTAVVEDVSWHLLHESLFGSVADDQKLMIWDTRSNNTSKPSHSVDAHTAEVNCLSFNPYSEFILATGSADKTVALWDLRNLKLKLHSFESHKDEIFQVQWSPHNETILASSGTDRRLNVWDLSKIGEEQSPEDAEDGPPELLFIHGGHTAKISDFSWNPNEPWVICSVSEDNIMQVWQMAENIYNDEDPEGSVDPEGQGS
# Recombinant PRC2 (EZH2-Y641F), sequence (Q6ZN18 whole entry partner): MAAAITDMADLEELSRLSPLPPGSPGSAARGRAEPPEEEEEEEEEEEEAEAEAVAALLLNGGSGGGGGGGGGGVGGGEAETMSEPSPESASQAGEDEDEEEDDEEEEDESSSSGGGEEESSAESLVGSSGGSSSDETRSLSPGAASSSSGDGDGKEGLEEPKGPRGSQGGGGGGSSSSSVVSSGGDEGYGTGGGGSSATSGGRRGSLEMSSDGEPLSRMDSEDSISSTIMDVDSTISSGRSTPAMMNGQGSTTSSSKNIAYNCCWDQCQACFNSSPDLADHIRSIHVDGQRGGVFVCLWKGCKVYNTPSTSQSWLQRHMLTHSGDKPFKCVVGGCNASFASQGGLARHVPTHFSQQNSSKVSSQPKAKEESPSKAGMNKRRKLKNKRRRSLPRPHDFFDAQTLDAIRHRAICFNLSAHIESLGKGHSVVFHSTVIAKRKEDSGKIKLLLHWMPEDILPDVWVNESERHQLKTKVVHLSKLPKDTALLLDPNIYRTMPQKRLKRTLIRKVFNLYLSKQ
SMILES,IC50 [1] [µM],"IC50 (Pfeiffer cells; Homo sapiens, 144 h) [µM]",IC50 (Pfeiffer cells) [µM],"inhibitory activity against the enzyme (in words) ([1]; SAR comment on Table 1, reduced relative to comparator compounds (P-7, P-13/14))"
"CCc1c(C(=O)NCc2c(C)cc(C)[nH]c2=O)cc2c(cnn2C)c1N(CC)C1CCOCC1 [P-17, N-((4,6-dimethyl-2-oxo-1,2-dihydropyridin-3-yl)methyl)-5-ethyl-4-(ethyl(tetrahydro-2H-pyran-4-yl)amino)-1-methyl-1H-indazole-6-carboxamide]",0.008,0.036,,
"CCc1c(C(=O)NCc2c(C)cc(C)[nH]c2=O)cc2c(cnn2C)c1N(CC)C1CCC(N2CC(C)C2)CC1 [P-18, N-((4,6-dimethyl-2-oxo-1,2-dihydropyridin-3-yl)methyl)-5-ethyl-4-(ethyl((1S,4S)-4-(3-methylazetiazin-1-yl)cyclohexyl)amino)-1-methyl-1H-indazole-6-carboxamide]",0.012,,0.007,
CCc1c(C(=O)NCc2c(C)cc(C)[nH]c2=O)cc2c(cnn2C)c1N(CC)[C@H]1CC[C@H](N2CC(OC)C2)CC1 [P-19],0.045,,0.076,
"CCc1c(C(=O)NCc2c(C)cc(C)[nH]c2=O)cc2c(cnn2C)c1N(CC)C1CCC(N(C)CCOC)CC1 [P-20, N-((4,6-dimethyl-2-oxo-1,2-dihydropyridin-3-yl)methyl)-5-ethyl-4-(ethyl((1S, 4S)-4-((2-methoxyethyl)(methyl)amino)cyclohexyl)amino)-1-methyl-1H-indazole-6-carboxamide]",0.018,,0.031,
"CCc1c(C(=O)NCc2c(OC)cc(C)[nH]c2=O)cc2c(cnn2C)c1N(C)[C@H]1CC[C@H](N(C)CCOC)CC1 [P-21, 5-ethyl-4-(methyl((1R, 4R)-4-((2-methoxyethyl) (methyl)amino)cyclohexyl)amino)-N-((4-methoxy-6-methyl-2-oxo-1,2-dihydropyridin-3-yl)methyl)-1-methyl-1H-indazole-6-carboxamide]",0.014,,0.032,
"CCc1c(C(=O)NCc2c(OC)cc(C)[nH]c2=O)cc2c(cnn2C)c1N(CC)C1CCC(N(C)C)CC1 (stereo not drawn) [P-22, 4-((4-(dimethylamino)cyclohexyl)(ethyl)amino)-5-ethyl-N-((4-methoxy-6-methyl-2-oxo-1,2-dihydropyridin-3-yl)methyl) 1-methyl-1H-indazole-6-carboxamide]",0.005,,0.066,
CCc1c(C(=O)NCc2c(C)cc(C)[nH]c2=O)cc2c(cnn2C)c1N(CC)C1CCC(N(C)C)CC1 (stereo not drawn) [P-23],0.005,0.025,,
CCc1c(C(=O)NCc2c(C)cc(C)[nH]c2=O)cc2c(cnn2C)c1N(CC)C1CCC(N2CCOCC2)CC1 (stereo not drawn) [P-24],0.009,0.169,,
CCc1c(C(=O)NCc2c(C)cc(C)[nH]c2=O)cc2c(cnn2C)c1N(CC)C1CCC(NC(F)(F)F)CC1 (stereo not drawn) [P-25],0.046,0.278,,
CCN(c1c(C)c(C(=O)NCc2c(C)cc(C)[nH]c2=O)cc2c1cnn2C)C1CCC(CN(C)C)CC1 (stereo not drawn) [P-26],0.008,0.048,,
CCN(c1c(C#N)c(C(=O)NCc2c(C)cc(C)[nH]c2=O)cc2c1cnn2C)C1CCOCC1 [P-27],1.75,> 10,,
CCN(c1c(C2CC2)c(C(=O)NCc2c(C)cc(C)[nH]c2=O)cc2c1cnn2C)C1CCOCC1 [P-28],0.402,0.702,,
CCc1c(C(=O)NCc2c(C)cc(C)[nH]c2=O)cc2c(cnn2C)c1N(CC)C1CCC(N2CCNCC2)CC1 (stereo not drawn) [P-29],0.034,0.191,,
CCc1c(C(=O)NCc2c(C)cc(C)[nH]c2=O)cc2c(cnn2C)c1N(CC)C1CCC(N2CCN(C)CC2)CC1 (stereo not drawn) [P-30],0.046,0.201,,
CCN(c1c(C)c(C(=O)NCc2c(C)cc(C)[nH]c2=O)cc2c1cnn2C)C1CCC(N2CC(F)(F)C2)CC1 (stereo not drawn) [P-31],0.015,0.13,,
CCN(c1c(C)c(C(=O)NCc2c(C)cc(C)[nH]c2=O)cc2c1cnn2C)C1CCC(N2CCCCC2)CC1 (stereo not drawn) [P-32],0.012,0.059,,
CCN(c1c(C)c(C(=O)NCc2c(C)cc(C)[nH]c2=O)cc2c1cnn2C)C1CCC(N(C)CCN(C)C)CC1 (stereo not drawn) [P-34],0.026,0.196,,
CCc1c(C(=O)NCc2c(C)cc(C)[nH]c2=O)cc2c(cnn2C)c1N(CC)C1CCC(N2CC(OCC(F)(F)F)C2)CC1 (stereo not drawn) [P-36],0.013,0.003,,
CCN(c1c(C)c(C(=O)NCc2c(C)cc(C)[nH]c2=O)cc2c1cnn2C)C1CCC(N2CC(OCC(F)(F)F)C2)CC1 (stereo not drawn) [P-37],0.012,0.297,,
CCOC1CN(C2CCC(N(CC)c3c(CC)c(C(=O)NCc4c(C)cc(C)[nH]c4=O)cc4c3cnn4C)CC2)C1 (stereo not drawn) [P-39],0.007,0.005,,
CCN(c1c(C)c(C(=O)NCc2c(C)cc(C)[nH]c2=O)cc2c1c(F)nn2C)C1CCOCC1 [P-41],0.425,2,,greatly reduced
CCN(c1ccc(CN(C)C)cc1)c1c(C)c(C(=O)NCc2c(C)cc(C)[nH]c2=O)cc2c1cnn2C [P-43],0.033,0.123,,
"CCN(c1c(C)c(C(=O)NCc2c(C)cc(C)[nH]c2=O)cc2c1cnn2C)C1CCC(N(C)CC(F)(F)F)CC1 (stereo not drawn) [P-44, N-((4,6-dimethyl-2-oxo-1,2-dihydropyridin-3-yl)methyl)-4-(ethyl(4-(methyl(2,2,2-trifluoroethyl)amino)cyclohexyl)amino)-1,5-dimethyl-1H-indazole-6-carboxamide]",0.06,0.3,,
"CCc1c(C(=O)NCc2c(C)cc(C)[nH]c2=O)cc2c(cnn2C)c1N(CC)C1CCC(N2CC(O)C2)CC1 (stereo not drawn) [P-47, N-((4,6-dimethyl-2-oxo-1,2-dihydropyridin-3-yl)methyl)-5-ethyl-4-(ethyl(4-(3-hydroxyazetidin-1-yl)cyclohexyl)amino)-1-methyl-1H-indazole-6-carboxamide]",0.007,0.178,,
"CCN(c1c(C)c(C(=O)NCc2c(C)cc(C)[nH]c2=O)cc2c1cnn2C)C1CCN(C2COC2)CC1 [P-48, N-((4,6-dimethyl-2-oxo-1,2-dihydropyridin-3-yl)methyl)-4-(ethyl(1-(oxetane-3-yl)piperidin-4-yl)amino)-1,5-dimethyl-1H-indazole-6-carboxamide]",0.049,0.305,,
